Tests used:
Hepatotoxicity [1] = assay: Literature-mined compound from Fourches et al multi-species drug-induced liver injury (DILI) dataset, effect in non-rodents
Hepatotoxicity [2] = assay: Literature-mined compound from Fourches et al multi-species drug-induced liver injury (DILI) dataset, effect in humans; details: human
Hepatotoxicity [3] = assay: Literature-mined compound from Fourches et al multi-species drug-induced liver injury (DILI) dataset, effect in rodents; details: rodentia

Row | Compound | Hepatotoxicity (Hepatotoxicity [1]) | Hepatotoxicity (Hepatotoxicity [2]) | Hepatotoxicity (Hepatotoxicity [3]) | Hepatotoxicity (Hepatotoxicity [1]; Liver) | Hepatotoxicity (Hepatotoxicity [2]; Liver) | Hepatotoxicity (Hepatotoxicity [3]; Liver)
1 | Nc1ncnc2c1ncn2[C@@H]1O[C@H](CO)[C@@H](O)[C@H]1O [ADENOSINE] | drug-induced liver injury reported | drug-induced liver injury reported | drug-induced liver injury reported | – | – | –
2 | CC[C@H]1[C@@H]2C[C@H]3[C@@H]4N(C)c5ccccc5[C@]45C[C@@H]([C@@H]2[C@H]5O)N3[C@@H]1O [AJMALINE] | no drug-induced liver injury reported | drug-induced liver injury reported | no drug-induced liver injury reported | – | – | –
3 | N[C@@H](CN(O)N=O)C(=O)O [ALANOSINE] | no drug-induced liver injury reported | no drug-induced liver injury reported | drug-induced liver injury reported | – | – | –
4 | CS(=O)(=O)O.C[C@H](N)C(=O)N[C@@H](C)C(=O)N[C@H]1[C@@H]2CN(c3nc4c(cc3F)c(=O)c(C(=O)O)cn4-c3ccc(F)cc3F)C[C@@H]21 [ALATROFLOXACIN MESYLATE] | no drug-induced liver injury reported | drug-induced liver injury reported | no drug-induced liver injury reported | – | – | –
5 | CCCSc1ccc2nc(NC(=O)OC)[nH]c2c1 [ALBENDAZOLE] | no drug-induced liver injury reported | drug-induced liver injury reported | no drug-induced liver injury reported | – | – | –
6 | CC(C)(C)NCC(O)c1ccc(O)c(CO)c1 (centres undefined) [ALBUTEROL] | – | – | – | no drug-induced liver injury reported | no drug-induced liver injury reported | drug-induced liver injury reported
7 | CCO [ALCOHOL] | – | – | – | drug-induced liver injury reported | drug-induced liver injury reported | drug-induced liver injury reported
8 | C=C1/C(=C\C=C2/CCC[C@]3(C)[C@@H]([C@H](C)CCCC(C)C)CC[C@@H]23)C[C@@H](O)C[C@@H]1O [ALFACALCIDOL] | no drug-induced liver injury reported | drug-induced liver injury reported | no drug-induced liver injury reported | – | – | –
9 | COc1cc2nc(N(C)CCCNC(=O)C3CCCO3)nc(N)c2cc1OC (centres undefined) [ALFUZOSIN] | no drug-induced liver injury reported | drug-induced liver injury reported | no drug-induced liver injury reported | – | – | –
10 | CC1=C(/C=C/C(C)=C\C=C\C(C)=C\C(=O)O)C(C)(C)CCC1 [ALITRETINOIN] | no drug-induced liver injury reported | drug-induced liver injury reported | drug-induced liver injury reported | – | – | –
11 | NC(=O)NC1NC(=O)NC1=O (centres undefined) [ALLANTOIN] | no drug-induced liver injury reported | no drug-induced liver injury reported | drug-induced liver injury reported | – | – | –
12 | C=CCC1(CC=C)C(=O)NC(=O)NC1=O [ALLOBARBITAL] | no drug-induced liver injury reported | no drug-induced liver injury reported | drug-induced liver injury reported | – | – | –
13 | Oc1ncnc2[nH]ncc12 [ALLOPURINOL] | no drug-induced liver injury reported | drug-induced liver injury reported | drug-induced liver injury reported | – | – | –
14 | CCCCC[C@H](O)/C=C/[C@H]1[C@H](O)CC(=O)[C@@H]1CCCCCCC(=O)O [ALPROSTADIL] | drug-induced liver injury reported | drug-induced liver injury reported | drug-induced liver injury reported | – | – | –
15 | CCN(CCCc1ccccc1)CCCc1ccccc1 [ALVERINE] | no drug-induced liver injury reported | drug-induced liver injury reported | no drug-induced liver injury reported | – | – | –
16 | CN1CC[C@H](c2c(O)cc(O)c3c(=O)cc(-c4ccccc4Cl)oc23)[C@H](O)C1 [ALVOCIDIB] | no drug-induced liver injury reported | drug-induced liver injury reported | no drug-induced liver injury reported | – | – | –
17 | NC12CC3CC(CC(C3)C1)C2 [AMANTADINE] | no drug-induced liver injury reported | no drug-induced liver injury reported | drug-induced liver injury reported | – | – | –
18 | COC(c1ccccc1)(c1ccccc1)[C@H](Oc1nc(C)cc(C)n1)C(=O)O [AMBRISENTAN] | drug-induced liver injury reported | no drug-induced liver injury reported | no drug-induced liver injury reported | – | – | –
19 | Nc1c(Br)cc(Br)cc1CN[C@H]1CC[C@H](O)CC1 [AMBROXOL] | no drug-induced liver injury reported | no drug-induced liver injury reported | drug-induced liver injury reported | – | – | –
20 | NCC[C@H](O)C(=O)N[C@@H]1C[C@H](N)[C@@H](O[C@H]2O[C@H](CN)[C@@H](O)[C@H](O)[C@H]2O)[C@H](O)[C@H]1O[C@H]1O[C@H](CO)[C@@H](O)[C@H](N)[C@H]1O [AMIKACIN] | drug-induced liver injury reported | drug-induced liver injury reported | no drug-induced liver injury reported | – | – | –
21 | N=C(N)NC(=O)c1nc(Cl)c(N)nc1N [AMILORIDE] | no drug-induced liver injury reported | drug-induced liver injury reported | drug-induced liver injury reported | – | – | –
22 | O=C(O)CCCCCCNC1c2ccccc2CCc2ccccc21 [AMINEPTINE] | no drug-induced liver injury reported | drug-induced liver injury reported | drug-induced liver injury reported | – | – | –
23 | Nc1ccc(C(=O)O)cc1 [AMINOBENZOIC ACID] | no drug-induced liver injury reported | no drug-induced liver injury reported | drug-induced liver injury reported | – | – | –
24 | NCCCCCC(=O)O [AMINOCAPROIC ACID] | no drug-induced liver injury reported | drug-induced liver injury reported | no drug-induced liver injury reported | – | – | –
25 | CCC1(c2ccc(N)cc2)CCC(=O)NC1=O (centres undefined) [AMINOGLUTETHIMIDE] | no drug-induced liver injury reported | no drug-induced liver injury reported | drug-induced liver injury reported | – | – | –
26 | Cn1c(=O)c2[nH]cnc2n(C)c1=O.Cn1c(=O)c2[nH]cnc2n(C)c1=O.NCCN [AMINOPHYLLINE] | no drug-induced liver injury reported | drug-induced liver injury reported | drug-induced liver injury reported | – | – | –
27 | Cc1c(N(C)C)c(=O)n(-c2ccccc2)n1C [AMINOPYRINE] | no drug-induced liver injury reported | drug-induced liver injury reported | drug-induced liver injury reported | – | – | –
28 | Nc1ccc(C(=O)O)c(O)c1 [AMINOSALICYLIC ACID] | no drug-induced liver injury reported | drug-induced liver injury reported | no drug-induced liver injury reported | – | – | –
